Test results: patent US10214492B2, “Heterocyclic inhibitors of MCT4” (Vettore, LLC, priority 2016, dated 2019)

Assays:
MCT4 = MCT4 (Homo sapiens (Human), UniProt O15427); assay: Assay 3: MCT4-mediated lactate transport in MDA-MB-231 breast cancer cells; type: cell-based; settings: MDA-MB-231 cells; lactate transport
Procedure: (§1) 10 μL of a 30 mM DMSO stock of BCECF-AM ester (Life Technologies) is added and the cells are incubated at 37° C. for 5 min. The cells are pelleted (300 g, 5 min), washed once with 1 mL Tyrode's Solution, pH 7.4, re-pelleted (300 g, 5 min), and resuspended in 1 mL Tyrode's Solution, pH 7.4.
MCT4 activity may be assessed by monitoring the intracellular pH change that accompanies lactate/proton symport, using the pH-sensitive fluorescent dye 2′,7′-bis-(carboxyethyl)-5(6)-carboxyfluorescein (BCECF), in a manner similar to that previously reported for MCT1 and MCT4. The following is an exemplary procedure for assaying MCT4 activity of the compounds of Formula (I).

MCT1 = MCT1 (Homo sapiens (Human), UniProt P53985); assay: Assay 4: MCT1-mediated lactate transport in BT20 breast cancer cells; type: cell-based; settings: Table 27
Procedure: as §1
Assay 4: MCT1-Mediated Lactate Transport in BT20 Breast Cancer Cells.
Preparation of BCECF loaded cells are as described for Assay 1. Lactate transport assay is as described for Assay 1, except 10 mM L-lactate (rather than 50 mM) is added.

Chain of MCT1 (P53985 whole entry): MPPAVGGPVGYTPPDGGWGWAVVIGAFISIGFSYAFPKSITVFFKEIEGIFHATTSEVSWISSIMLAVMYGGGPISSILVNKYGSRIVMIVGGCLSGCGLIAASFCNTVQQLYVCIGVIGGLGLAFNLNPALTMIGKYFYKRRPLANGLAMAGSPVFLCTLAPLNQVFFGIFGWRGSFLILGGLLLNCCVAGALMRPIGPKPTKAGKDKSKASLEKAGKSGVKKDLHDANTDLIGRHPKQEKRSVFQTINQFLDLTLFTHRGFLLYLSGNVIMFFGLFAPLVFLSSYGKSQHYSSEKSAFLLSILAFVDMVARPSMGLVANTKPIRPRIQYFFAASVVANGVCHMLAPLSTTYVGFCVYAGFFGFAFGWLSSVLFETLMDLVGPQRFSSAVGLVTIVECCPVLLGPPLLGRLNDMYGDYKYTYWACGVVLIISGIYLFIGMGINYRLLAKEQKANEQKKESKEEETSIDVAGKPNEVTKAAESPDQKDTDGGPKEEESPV
Chain of MCT1 (P35613 140-385 partner): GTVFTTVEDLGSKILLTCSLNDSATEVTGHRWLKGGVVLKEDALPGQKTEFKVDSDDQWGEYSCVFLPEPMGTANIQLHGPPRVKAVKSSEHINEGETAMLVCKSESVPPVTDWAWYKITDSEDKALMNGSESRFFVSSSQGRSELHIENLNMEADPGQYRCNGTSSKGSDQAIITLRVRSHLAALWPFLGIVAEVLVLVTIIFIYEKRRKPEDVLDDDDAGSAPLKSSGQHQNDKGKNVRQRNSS
Chain of MCT4 (O15427 whole entry, looked up): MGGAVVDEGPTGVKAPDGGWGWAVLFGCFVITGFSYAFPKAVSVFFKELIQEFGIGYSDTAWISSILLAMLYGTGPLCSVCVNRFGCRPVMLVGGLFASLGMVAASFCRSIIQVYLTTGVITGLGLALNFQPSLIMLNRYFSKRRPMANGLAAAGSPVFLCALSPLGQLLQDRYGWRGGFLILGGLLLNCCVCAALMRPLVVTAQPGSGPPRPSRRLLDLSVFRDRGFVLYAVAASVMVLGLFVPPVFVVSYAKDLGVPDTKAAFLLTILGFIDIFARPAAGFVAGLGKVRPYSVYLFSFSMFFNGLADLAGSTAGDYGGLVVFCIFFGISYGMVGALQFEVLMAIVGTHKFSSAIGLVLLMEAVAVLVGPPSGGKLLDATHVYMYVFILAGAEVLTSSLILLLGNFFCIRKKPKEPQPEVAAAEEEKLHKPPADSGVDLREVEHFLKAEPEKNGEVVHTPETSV
Chain of MCT4 (P35613 whole entry partner, looked up): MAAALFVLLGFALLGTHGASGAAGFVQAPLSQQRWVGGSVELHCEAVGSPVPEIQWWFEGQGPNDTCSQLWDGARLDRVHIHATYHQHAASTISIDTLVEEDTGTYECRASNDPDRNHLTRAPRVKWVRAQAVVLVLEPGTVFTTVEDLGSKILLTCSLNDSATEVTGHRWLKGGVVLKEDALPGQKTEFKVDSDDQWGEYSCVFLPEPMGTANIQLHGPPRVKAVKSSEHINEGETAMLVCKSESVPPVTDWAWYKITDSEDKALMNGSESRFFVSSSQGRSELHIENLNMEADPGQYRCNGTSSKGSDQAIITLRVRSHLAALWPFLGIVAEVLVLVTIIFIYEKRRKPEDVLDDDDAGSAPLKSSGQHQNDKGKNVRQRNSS

Compound | IC50 (MCT4) [nM] | IC50 (MCT1) [nM]
CCn1nnc2ccc(-c3cc(COC(C)(C)C(=O)O)nn3Cc3ccccc3Cl)cc21 [Example 261] | 17 | 43000
CC(C)Oc1ccc(-c2cc(COC(C)(C)C(=O)O)nn2Cc2ccccc2Cl)s1 [Example 129, 2-([1-[(2-Chlorophenyl)methyl]-5-[5-(propan-2-yloxy)thien-2-yl]-1H-pyrazol-3-yl]methoxy)-2-methylpropanoic acid] | 2.8 | 16000
CN(C)c1ccccc1Cn1nc(COC(C)(C)C(=O)O)cc1-c1cccc(OC2CC2)c1 [Example 214, 2-([5-(3-Cyclopropoxyphenyl)-1-[[2-(dimethylamino)phenyl)methyl]-1H-pyrazol-3-yl]methoxy)-2-methylpropanoic acid] | 6 | 94000
CCOc1cc(OCC)cc(-c2cc(COC(C)(C)C(=O)O)nn2-c2ccccc2C)c1 [Example 162, 2-([5-(3,5-Diethoxyphenyl)-1-(2-methyl-phenyl)-1H-pyrazol-3-yl]methoxy)-2-methylpropanoic acid] | 6.4 | 34000
CC(C)(OCc1cc(-c2cccc(OC3CC3)c2)n(-c2ccccc2N2CCCC2=O)n1)C(=O)O [Example 235, 2-([5-(3-Cyclopropoxyphenyl)-1-(2-(2-oxopyrrolidin-1-yl)phenyl]-1H-pyrazol-3-yl]methoxy)-2-methylpropanoic acid] | > 30000 | > 100000
Cc1nn(C)c2c(-n3nc(COC(C)(C)C(=O)O)cc3-c3cccc(OCC(C)(C)C)c3)cccc12 [Example 255] | – | 7300
COc1cccc(-c2cc(CO[C@H](C)C(=O)O)nn2Cc2ccccc2Cl)c1 [Example 125, (2R)-2-([1-[(2-Chlorophenyl)methyl]-5-(3-methoxyphenyl)-1H-pyrazol-3-yl]methoxy)-propanoic acid] | 5900 | –
COc1ccccc1Cn1nc(COC(C)(C)C(=O)O)cc1-c1cccc(OC2CC2)c1 [Example 111, 2-([5-(3-Cyclopropoxyphenyl)-1-[(2-methoxyphenyl)methyl]-1H-pyrazol-3-yl)methoxy)-2-methylpropanoic acid] | 7.9 | 32000
CC[C@@](C)(OCc1cc(-c2cccc(OCC(C)(C)C)c2)n(-c2cccc3cnn(C)c23)n1)C(=O)O [Example 223, (2R)-2-([5-[3-(2,2-Dimethyl-propoxy)phenyl]-1-(1-methyl-1H-indazol-7-yl)-1H-pyrazol-3-yl]methoxy)-2-methyl-butanoic acid] | 0.3 | 21000
CC(C)(OCc1cc(-c2cccc(OC3CC3)c2)n(-c2ccccc2Br)n1)C(=O)O [Example 182, 2-([1-(2-Bromophenyl)-5-(3-cyclopropoxy-phenyl)-1H-pyrazol-3-yl]methoxy)-2-methylpropanoic acid] | 5.9 | 12000
CC[C@](C)(OCc1cc(-c2cccc(OC)c2)n(Cc2ccccc2Cl)n1)C(=O)O [Example 218, (2S)-2-([1-[(2-chlorophenyl)methyl]-5-(3-methoxyphenyl)-1H-pyrazol-3-yl]methoxy)-2-methylbutanoic acid] | 7.5 | 22000
CCOc1cccc(F)c1Cn1nc(COC(C)(C)C(=O)O)cc1-c1cc(OC)cc(OC)c1 [Example 252, 2-([5-(3,5-Dimethoxyphenyl)-1-[(2-ethoxy-6-fluorophenyl)methyl]-1H-pyrazol-3-yl]methoxy)-2-methylpropanoic acid] | 25 | 43000
CCOc1cc(OC)cc(-c2cc(COC(C)(C)C(=O)O)nn2Cc2ccccc2OCC)c1 [Example 200, 2-([5-(3-Ethoxy-5-methoxyphenyl)-1-[(2-ethoxyphenyl)methyl]-1H-pyrazol-3-yl]-methoxy)-2-methylpropanoic acid] | 1.9 | 17000
COc1ccccc1-c1cc(COC(C)(C)C(=O)O)nn1Cc1ccccc1Cl [Example 126] | 130 | 35000
CC(C)COc1cccc(-c2cc(COC(C)(C)C(=O)O)nn2-c2ccccc2)c1 [Example 104, 2-methyl-2-([5-[3-(2-methylpropoxy)phenyl]-1-phenyl-1H-pyrazol-3-yl]methoxy)propanoic acid] | 20 | 12000
COc1cc(OC)cc(-c2cc(COC(C)(C)C(=O)O)nn2-c2cccc(OC)c2)c1 [Example 242, 2-([5-(3,5-Dimethoxyphenyl)-1-(3-methoxyphenyl)-1H-pyrazol-3-yl]methoxy)-2-methylpropanoic acid] | – | 57000
CC(C)(OCc1cc(-c2ccccn2)n(-c2ccccc2Cl)n1)C(=O)O [Example 156, 2-([1-(2-Chlorophenyl)-5-(pyridin-2-yl)-1H-pyrazol-3-yl]methoxy)-2-methylpropanoic acid] | 1400 | > 100000

Compound | IC50 (MCT4) [nM] | IC50 (MCT1) [nM]
Cn1cnc2ccc(-c3cc(COC(C)(C)C(=O)O)nn3Cc3ccccc3Cl)cc21 [Example 248, 2-([1-[(2-Chlorophenyl)methyl]-5-(1-methyl-1H-1,3-benzodiazol-6-yl)-1H-pyrazol-3-yl]methoxy)-2-methylpropanoic acid] | – | > 100000
CC(C)(OCc1cc(-c2cc3ccccc3s2)n(Cc2ccccc2Cl)n1)C(=O)O [Example 195] | 5.3 | 13000
CC(C)COc1cccc(-c2cc(COC(C)(C)C(=O)O)nn2Cc2ccccn2)c1 [Example 247, 2-Methyl-2-([5-[3-(2-methylpropoxy)-phenyl]-1-([pyridin-2-yl]methyl)-1H-pyrazol-3-yl]methoxy)propanoic acid] | 23 | > 100000
CC[C@@](C)(OCc1cc(-c2cccc(OC)c2)n(Cc2ccccc2Cl)n1)C(=O)O [Example 219, (2R)-2-([1-[(2-chlorophenyl)methyl]-5-(3-methoxyphenyl)-1H-pyrazol-3-yl]methoxy)-2-methylbutanoic acid] | 4 | 14000
CCOc1ccccc1-n1nc(COC(C)(C)C(=O)O)cc1-c1cccc(OC2CC2)c1 [Example 187, 2-([5-(3-cyclopropoxyphenyl)-1-(2-ethoxy-phenyl)-1H-pyrazol-3-yl]methoxy)-2-methylpropanoic acid] | 43 | 63000
CC(C)(OCc1cc(-c2cccc(OC3CC3)c2)n(-c2ccccc2C(F)(F)F)n1)C(=O)O [Example 190, 2-([5-(3-Cyclopropoxyphenyl)-1-[2-(trifluoromethyl)phenyl]-1H-pyrazol-3-yl]-methoxy)-2-methylpropanoic acid] | 7.8 | 31000
COc1cc(OC)cc(-c2cc(COC(C)(C)C(=O)O)nn2-c2cccc3cnn(C)c23)c1 [Example 249, 2-([5-(3,5-Dimethoxyphenyl)-1-(1-methyl-1H-indazol-7-yl)-1H-pyrazol-3-yl]methoxy)-2-methylpropanoic acid] | 39 | > 100000
CC(C)(OCc1cc(-c2cccc(OCC3COC3)c2)n(-c2ccccc2F)n1)C(=O)O [Example 158, 2-([1-(2-Fluorophenyl)-5-[3-(oxetan-3-yl-methoxy)phenyl]-1H-pyrazol-3-yl]-methoxy)-2-methylpropanoic acid] | 580 | > 100000
CC[C@@](C)(OCc1cc(-c2cccc(OC3CC3)c2)n(-c2ccccc2Cl)n1)C(=O)O [Example 262, (2R)-2-([1-(2-Chlorophenyl)-5-(3-cyclopropoxyphenyl)-1H-pyrazol-3-yl]methoxy)-2-methylbutanoic acid] | 9.1 | 7900
CCOc1cc(OCC)cc(-c2cc(COC(C)(C)C(=O)O)nn2-c2cccc3cnn(C)c23)c1 [Example 171, 2-([5-(3,5-Diethoxyphenyl)-1-(1-methyl-1H-indazol-7-yl)-1H-pyiazol-3-yl]methoxy)-2-methylpropanoic acid] | 12 | 32000
COc1cccc(-c2cc(COC(C)(C)C(=O)O)nn2-c2ccccc2C)c1 [Example 118, 2-([5-(3-methoxyphenyl)-1-(2-methylphenyl)-1H-pyrazol-3-yl]methoxy)-2-methylpropanoic acid] | – | 50000
COc1cccc(-c2cc(COC(C)(C)C(=O)O)nn2Cc2c(F)cccc2N(C)C)c1 [Example 136, 2-[(1-[(2-(Dimethylamino)-6-fluoro-phenyl]methyl]-5-(3-methoxyphenyl)-1H-pyrazol-3-yl)methoxy)-2-methylpropanoic acid] | – | > 33000
COc1cccc(-c2cc(COC(C)(C)C(=O)O)nn2-c2ccccc2OC)c1 [Example 119, 22-([1-(2-Methoxyphenyl)-5-(3-methoxyphenyl)-1H-pyrazol-3-yl]methoxy)-2-methylpropanoic acid] | – | 65000
COc1cc(OC)cc(-c2cc(COC(C)(C)C(=O)O)nn2-c2cccc(Cl)c2)c1 [Example 241, 2-([5-(3,5-Dimethoxyphenyl)-1-(3-chlorophenyl)-1H-pyrazol-3-yl]methoxy)-2-methylpropanoic acid] | – | 8500
COc1cccc(-c2cc(COC(C)(C)C(=O)O)nn2-c2cccnc2)c1 [Example 115, 2-([5-(3-Methoxyphenyl)-1-(pyridin-3-yl)-1H-pyrazol-3-yl]methoxy)-2-methylpropanoic acid] | – | > 100000
COc1cccc(-c2cc(COC(C)(C)C(=O)O)nn2-c2ccccc2F)c1 [Example 117, 2-([1-(2-Fluorophenyl)-5-(3-methoxyphenyl)-1H-pyrazol-3-yl]methoxy)-2-methylpropanoic acid] | – | > 100000
